A short description of the data set: collision cross section in nitrogen (drift tube, single-field); higher = larger gas-phase ion size.
Where [1] appears, read: ion type: [M+Na], ion source: ESI, ion mode: Positive.
The mark [2] stands for this setting: ion type: [M+H], ion source: ESI, ion mode: Positive.
The mark [3] stands for this setting: ion type: [M+H], ion source: APCI, ion mode: Positive.
The mark [4] stands for this setting: ion type: [M-H], ion source: ESI, ion mode: Negative.

Molecules are shown by their SMILES. Structures can show the parent of a compound that is named as a salt.
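Note: chemical standards at 10 µM analysed by drift tube IMS-QTOF MS in about 3.95 torr nitrogen, mean of duplicate injections differing ≤1%, mass error below 10 ppm.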

Turning to `CCCCC(CC)COP(=O)(OCC(CC)CCCC)OCC(CC)CCCC` (stereo unspecified) [Tris(2-ethylhexyl) phosphate], under setting [1], the “collision cross section in nitrogen” value worked out at 231.9 Å².
In the case of `CCCCC(CC)COC(=O)c1ccc(C(=O)OCC(CC)CCCC)c(C(=O)OCC(CC)CCCC)c1` (stereo unspecified) [Tris(2-ethylhexyl) trimellitate], the “collision cross section in nitrogen” value under setting [2] is reported as 256.5 Å² and the “collision cross section in nitrogen” value under setting [1] is 264.6 Å².
With `O=c1n(CCO)c(=O)n(CCO)c(=O)n1CCO` [Tris(2-hydroxyethyl) isocyanurate], under setting [1], the “collision cross section in nitrogen” value turned out to be 159.3 Å².
On to `Cc1ccc(OP(=O)(Oc2ccc(C)cc2)Oc2ccc(C)cc2)cc1` [Tris(4-methylphenyl) phosphate], for which the “collision cross section in nitrogen” value runs as follows: under setting [3], 191 Å²; under setting [2], 190.1 Å²; under setting [1], 200.1 Å².
As to `S=c1[nH]c(=S)[nH]c(=S)[nH]1` [Trisodium 2,4,6-trithioxo-1,3,5-triazinane-1,3,5-triide], the “collision cross section in nitrogen” value under setting [4] is given as 125.6 Å².
As to `CC1(C)CCC(=Cc2ccc(Cl)cc2)C1(O)Cn1cncn1` (stereo unspecified) [Triticonazole], the “collision cross section in nitrogen” value runs as follows: under setting [3], 181.7 Å²; under setting [2], 180.6 Å²; under setting [1], 189 Å².
Take `ClC(c1ccccc1)(c1ccccc1)c1ccccc1` [Trityl chloride]: under setting [3], the “collision cross section in nitrogen” value was 162.5 Å².
Turning to `Cc1ccc(OP(=O)(Oc2ccc(C)cc2C)Oc2ccc(C)cc2C)c(C)c1` [Trixylyl phosphate], the “collision cross section in nitrogen” value was determined as 204.2 Å² under setting [3], 203.1 Å² under setting [2] and 212.6 Å² under setting [1].
As to `Cc1c(C)c2c(c(C)c1O)CCC(C)(COc1ccc(CC3SC(=O)NC3=O)cc1)O2` (stereo unspecified) [Troglitazone], the “collision cross section in nitrogen” value under setting [4] worked out at 193.9 Å².
Same read-out and setting: with `O=c1ccc2ccc(O)cc2o1` [Umbelliferone] the figure was 127.4 Å².
Still for that read-out and setting: then `O=C(O)CCCCCCCCCC(=O)O` [Undecanedioic acid], with 149 Å²; and `O=c1[nH]c(=O)c2[nH]c(=O)[nH]c2[nH]1` [Uric acid], with 126.4 Å².
As to `CC(=O)c1c(O)c(C)c(O)c2c1OC1=CC(=O)C(C(C)=O)C(=O)C12C` (stereo unspecified) [Usnic acid], the “collision cross section in nitrogen” value under setting [4] is 177.1 Å².
Still for that read-out and setting: with `CCCC(CCC)C(=O)O` [Valproic acid] the figure was 137.1 Å².
As for `Clc1ccc(Nc2nnc(Cc3ccncc3)c3ccccc23)cc1` [Vatalanib dihydrochloride], the “collision cross section in nitrogen” value is recorded as 188 Å² under setting [3], 187.6 Å² under setting [2], 191.4 Å² under setting [1] and 188.9 Å² under setting [4].
Consider `COc1ccc(C(CN(C)C)C2(O)CCCCC2)cc1` (stereo unspecified) [Venlafaxine hydrochloride], for which the “collision cross section in nitrogen” value by setting is: under setting [3], 170.8 Å²; under setting [2], 170.7 Å²; under setting [1], 177.7 Å².
On to `CC[C@]12CCCN3CCc4c(n(c5ccccc45)[C@@](O)(C(=O)OC)C1)[C@@H]32` [Vincamine], for which the “collision cross section in nitrogen” value by setting is: under setting [3], 182.5 Å²; under setting [2], 183.2 Å².
As for `C=CC1(C)OC(=O)N(c2cc(Cl)cc(Cl)c2)C1=O` (stereo unspecified) [Vinclozolin], under setting [4], the “collision cross section in nitrogen” value came to 154.4 Å².
For `COc1cccc([C@H](O)C2CCN(CCc3ccc(F)cc3)CC2)c1OC` [Volinanserin], the “collision cross section in nitrogen” value runs as follows: under setting [3], 185 Å²; under setting [2], 185 Å²; under setting [1], 188 Å².
As to `CC(=O)CC(c1ccccc1)c1c(O)c2ccccc2oc1=O` (stereo unspecified) [Warfarin], the “collision cross section in nitrogen” value was 167.4 Å² under setting [3], 166.9 Å² under setting [2], 179.1 Å² under setting [1] and 172.2 Å² under setting [4].
For `CN(CCO)CC(O)Cn1cnc2c1c(=O)n(C)c(=O)n2C` (stereo unspecified) [Xanthinol niacinate], the “collision cross section in nitrogen” value by setting is: under setting [3], 171.8 Å²; under setting [2], 171.7 Å²; under setting [1], 175.7 Å².
`O=c1c2ccccc2oc2ccccc12` [Xanthone]: under setting [3], the “collision cross section in nitrogen” value was found to be 135.2 Å².
As to `CCOC(=O)CN[C@@H](C(=O)N1CC[C@H]1C(=O)NCc1ccc(/C(N)=N/O)cc1)C1CCCCC1` [Ximelagatran], the “collision cross section in nitrogen” value was 208.6 Å² under setting [3], 208.6 Å² under setting [2], 213 Å² under setting [1] and 216.1 Å² under setting [4].
With `Cc1occc1C(=O)Nc1ccc(C(=O)N2CCC(F)(F)/C(=C\C(=O)N3CCC(N4CCCCC4)CC3)c3ccccc32)cc1` [YM 218], the “collision cross section in nitrogen” value is given as 240.1 Å² under setting [3], 239 Å² under setting [2] and 262.5 Å² under setting [1].
Consider `COP(=O)(OC)O/C(=C\Cl)c1cc(Cl)c(Cl)cc1Cl` [Z-Tetrachlorvinphos], for which the “collision cross section in nitrogen” value under setting [1] was 177.9 Å².
For `c1ccc(C(O[C@@H]2CCCN(CCc3ccc4c(c3)OCO4)C2)c2ccccc2)cc1` [Zamifenacin], the “collision cross section in nitrogen” value is 192.3 Å² under setting [3], 192.4 Å² under setting [2] and 195.9 Å² under setting [1].
As for `C[C@H]1CCCC(=O)CCC/C=C/c2cc(O)cc(O)c2C(=O)O1` [Zearalenone], under setting [4], the “collision cross section in nitrogen” value stood at 177.5 Å².
For `O=C(O)Cn1c(=O)n(Cc2ccc(Br)cc2F)c(=O)c2ccc(Cl)cc21` [Zenarestat], the “collision cross section in nitrogen” value under setting [4] turned out to be 188.9 Å².
With `CC(c1cc2ccccc2s1)N(O)C(N)=O` (stereo unspecified) [Zileuton], the “collision cross section in nitrogen” value under setting [1] is 156.4 Å².
As to `CCC(C)(NC(=O)c1cc(Cl)c(C)c(Cl)c1)C(=O)CCl` (stereo unspecified) [Zoxamide], the “collision cross section in nitrogen” value under setting [2] amounted to 175.9 Å² and the “collision cross section in nitrogen” value under setting [1] is 188 Å².
For the compound `N#CCc1cccc(C(F)(F)F)c1` [[3-(Trifluoromethyl)phenyl]acetonitrile], the “collision cross section in nitrogen” value under setting [4] stood at 129.1 Å².
For `Cc1cccc(Nc2cc(Cl)nc(SCC(=O)O)n2)c1C` [[4-Chloro-6-(2,3-xylidino)-2-pyrimidinylthio]acetic acid], the “collision cross section in nitrogen” value by setting is: under setting [3], 175.6 Å²; under setting [2], 175.5 Å²; under setting [1], 178.2 Å²; under setting [4], 171 Å².
`OC[C@H]1O[C@@H]2O[C@H]3[C@H](O)[C@@H](O)[C@@H](O[C@H]4[C@H](O)[C@@H](O)[C@@H](O[C@H]5[C@H](O)[C@@H](O)[C@@H](O[C@H]6[C@H](O)[C@@H](O)[C@@H](O[C@H]7[C@H](O)[C@@H](O)[C@@H](O[C@H]1[C@H](O)[C@H]2O)O[C@@H]7CO)O[C@@H]6CO)O[C@@H]5CO)O[C@@H]4CO)O[C@@H]3CO` [alpha-Cyclodextrin]: the “collision cross section in nitrogen” value under setting [2] amounted to 277.8 Å², the “collision cross section in nitrogen” value under setting [1] is 278.5 Å² and the “collision cross section in nitrogen” value under setting [4] came out at 286.4 Å².
In the case of `O=c1cc(-c2ccccc2)oc2c1ccc1ccccc12` [alpha-Naphthoflavone], the “collision cross section in nitrogen” value is given as 161.7 Å² under setting [3], 160.7 Å² under setting [2] and 185.7 Å² under setting [1].
For `c1csc(-c2ccc(-c3cccs3)s2)c1` [alpha-Terthiophene], the “collision cross section in nitrogen” value (ion type: [M+], ion source: APCI, ion mode: Positive) stood at 146.4 Å².
For `O=C1NC(=O)[C@@H]2CC=CC[C@H]12` [cis-1,2,3,6-Tetrahydrophthalimide], the “collision cross section in nitrogen” value under setting [4] is 133 Å².
With `N[C@H](Cc1c[nH]c2ccccc12)C(=O)O` [d-Tryptophan], the “collision cross section in nitrogen” value under setting [4] is reported as 151.5 Å².
Turning to `OC[C@H]1O[C@@H]2O[C@H]3[C@H](O)[C@@H](O)[C@@H](O[C@H]4[C@H](O)[C@@H](O)[C@@H](O[C@H]5[C@H](O)[C@@H](O)[C@@H](O[C@H]6[C@H](O)[C@@H](O)[C@@H](O[C@H]7[C@H](O)[C@@H](O)[C@@H](O[C@H]8[C@H](O)[C@@H](O)[C@@H](O[C@H]9[C@H](O)[C@@H](O)[C@@H](O[C@H]1[C@H](O)[C@H]2O)O[C@@H]9CO)O[C@@H]8CO)O[C@@H]7CO)O[C@@H]6CO)O[C@@H]5CO)O[C@@H]4CO)O[C@@H]3CO` [gamma-Cyclodextrin], the “collision cross section in nitrogen” value came to 318.1 Å² under setting [1] and 314.1 Å² under setting [4].
With `N[C@@H](Cc1c[nH]c2ccccc12)C(=O)O` [l-Tryptophan], under setting [4], the “collision cross section in nitrogen” value is given as 151.6 Å².
For the compound `CC1(C)[C@H](/C=C(\Cl)C(F)(F)F)[C@@H]1C(=O)O[C@@H](C#N)c1cccc(Oc2ccccc2)c1` [lambda-Cyhalothrin], the “collision cross section in nitrogen” value under setting [1] was 190.4 Å².
`CCCCCOC(=O)CCCCC` [n-Amyl caproate]: the “collision cross section in nitrogen” value under setting [4] was 151.6 Å².
On to `CCCCCCCCCCCCc1ccccc1O` [n-Dodecylphenol], for which the “collision cross section in nitrogen” value under setting [4] came out at 173.8 Å².
Take `Cc1cc(N=Nc2ccccc2C)ccc1N` [o-Aminoazotoluene]: the “collision cross section in nitrogen” value under setting [3] was 155.9 Å², the “collision cross section in nitrogen” value under setting [2] was 156 Å² and the “collision cross section in nitrogen” value under setting [4] amounted to 157.3 Å².
On to `Cc1ccccc1O` [o-Cresol], for which the “collision cross section in nitrogen” value under setting [4] came out at 120.4 Å².
For the compound `COc1ccc(N)cc1` [p-Anisidinium chloride], the “collision cross section in nitrogen” value under setting [2] turned out to be 133.2 Å².
Turning to `Cc1cc(C2(c3cc(C)c(O)cc3C)OS(=O)(=O)c3ccccc32)c(C)cc1O` [p-Xylenol blue], the “collision cross section in nitrogen” value runs as follows: under setting [3], 194.4 Å²; under setting [2], 194.5 Å²; under setting [1], 200.6 Å²; under setting [4], 198 Å².
For the compound `CCC(C)OC(=O)c1ccc(O)cc1` (stereo unspecified) [sec-Butylparaben], the “collision cross section in nitrogen” value under setting [4] amounted to 148.4 Å².
On the same count and under the same terms, with `CC(C)(C)OC(=O)c1ccc(O)cc1` [tert-Butyl 4-hydroxybenzoate] the figure was 148.2 Å²; with `CC(C)(C)OC(=O)c1ccccc1C(=O)O` [tert-Butyl hydrogen phthalate], 151.6 Å².
Turning to `CCCCCCCC/C=C/CCCCCCCC(=O)OCC(O)CO` (stereo not drawn) [trans-Monoelaidin], under setting [1], the “collision cross section in nitrogen” value turned out to be 199 Å².
